This is an account of results in patent US8304206B2, “Mass spectrometry assays for identifying compounds that activate deacetylases” (Sirtris Pharmaceuticals, Inc., priority 2005, dated 2012).

Assay [1] concerns the target T1, SIRT1 (Homo sapiens, UniProt Q96EB6).
T1 sequence (Q96EB6 1-747): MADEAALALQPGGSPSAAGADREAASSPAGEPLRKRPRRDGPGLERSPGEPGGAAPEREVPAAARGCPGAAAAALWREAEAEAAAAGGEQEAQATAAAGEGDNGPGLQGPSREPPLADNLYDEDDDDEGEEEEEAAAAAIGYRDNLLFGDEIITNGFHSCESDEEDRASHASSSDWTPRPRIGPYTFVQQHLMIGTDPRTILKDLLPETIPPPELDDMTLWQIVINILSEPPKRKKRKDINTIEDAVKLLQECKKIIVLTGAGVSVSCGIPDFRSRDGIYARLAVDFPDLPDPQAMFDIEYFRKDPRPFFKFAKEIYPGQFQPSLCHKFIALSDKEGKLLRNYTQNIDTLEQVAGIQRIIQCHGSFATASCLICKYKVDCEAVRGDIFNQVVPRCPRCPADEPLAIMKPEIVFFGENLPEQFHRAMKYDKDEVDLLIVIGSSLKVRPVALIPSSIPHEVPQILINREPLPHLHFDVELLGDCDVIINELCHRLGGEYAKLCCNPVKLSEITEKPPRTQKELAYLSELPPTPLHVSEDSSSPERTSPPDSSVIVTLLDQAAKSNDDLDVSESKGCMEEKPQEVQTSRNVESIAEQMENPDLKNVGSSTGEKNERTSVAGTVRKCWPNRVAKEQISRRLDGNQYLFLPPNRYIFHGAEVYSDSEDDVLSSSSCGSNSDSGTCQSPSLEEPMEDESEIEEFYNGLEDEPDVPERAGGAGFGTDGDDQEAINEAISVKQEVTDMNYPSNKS
The note with it: Sirt1, Fluorescent, cited from earlier work.

Assay [2] deals with T1, SIRT1. The note with it: Sirt1, Nicotinamide release; peptide p53 19 mer (aa 368-386) no FL; read-out: NAD Km; cited from earlier work.
The target of assay [3] is T1, SIRT1. As to the kind of experiment: SIRT1 Km for NAD+ (mass spectrometry). The assay is classed as biochemical. The note with it: 50 μM Acetylated Peptide Substrate, 1% DMSO.
Assay [4] concerns the target T1, SIRT1. The note with it: Sirt1, FRET; peptide p53 20 mer (aa 372-387) *FL; read-out: NAD Km; cited from earlier work.
In the next assay the target is T2, Sirt3 (Homo sapiens, UniProt Q9NTG7).
T2 sequence (Q9NTG7 1-399): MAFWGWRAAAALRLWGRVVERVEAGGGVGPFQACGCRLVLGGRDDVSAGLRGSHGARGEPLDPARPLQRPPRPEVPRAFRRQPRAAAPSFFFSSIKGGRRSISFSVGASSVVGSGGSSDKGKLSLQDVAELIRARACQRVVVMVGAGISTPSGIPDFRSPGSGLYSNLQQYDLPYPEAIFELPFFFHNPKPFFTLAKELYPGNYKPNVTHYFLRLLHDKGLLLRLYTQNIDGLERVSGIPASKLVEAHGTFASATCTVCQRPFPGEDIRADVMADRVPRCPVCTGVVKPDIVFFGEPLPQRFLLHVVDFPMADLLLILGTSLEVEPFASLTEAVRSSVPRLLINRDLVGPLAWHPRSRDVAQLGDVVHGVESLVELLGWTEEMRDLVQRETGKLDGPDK
The note with it: Sirt3, Fluorescent, cited from earlier work.

In assay [5] the target is T3, Sirt2 (Homo sapiens, UniProt Q8IXJ6).
T3 sequence (Q8IXJ6 1-389): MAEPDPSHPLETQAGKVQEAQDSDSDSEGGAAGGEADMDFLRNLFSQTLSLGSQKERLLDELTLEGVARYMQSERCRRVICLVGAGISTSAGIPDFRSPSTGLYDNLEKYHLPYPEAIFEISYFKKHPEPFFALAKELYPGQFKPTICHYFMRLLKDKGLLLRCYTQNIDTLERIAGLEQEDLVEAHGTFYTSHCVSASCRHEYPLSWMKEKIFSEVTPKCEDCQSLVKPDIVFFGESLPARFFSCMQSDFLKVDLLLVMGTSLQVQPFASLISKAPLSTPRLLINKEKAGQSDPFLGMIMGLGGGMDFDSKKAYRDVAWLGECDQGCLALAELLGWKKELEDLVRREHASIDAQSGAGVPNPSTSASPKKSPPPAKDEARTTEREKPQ
The note with it: Sirt2, Fluorescent, cited from earlier work.

The target of assay [6] is T3, Sirt2. The note with it: Sirt2, FRET; peptide p53 20 mer (aa 372-387) *FL; read-out: NAD Km; cited from earlier work.
Assay [7] addresses T1, SIRT1. The note with it: Sirt1, Nicotinamide release, read-out: NAD Km, cited from earlier work.
A further assay relates to NCI-H358 cells. As to the kind of experiment: Western blot of mitochondrial mass biomarkers. The assay is classed as cell-based, human. The note with it: 48 hours; 0, 1, 10 or 100 uM. The method, then: Western blots were conducted to correlate an observed increase in cellular ATP levels upon exposure of cells to a sirtuin activating compound to an increase in mitochondrial mass. […] Cell lysates were then prepared and specific mitochondrial proteins were quantitated by western analysis using antibodies specific to the following proteins: Succinate-Ubiquinol Oxidoreductase (Mitochondrial Complex II Protein, mouse monoclonal, InVitrogen, Cat. #A11142); ATP synthase F1F0 (Mitochondrial Complex V Protein, mouse monoclonal, InVitrogen, Cat.# A21350); NADH-Ubiquinol Oxidoreductase (Mitochondrial Complex I Protein, mouse monoclonal, InVitrogen, Cat. #A21344). Normalization was to alpha tubulin using a rabbit polyclonal (Santa Cruz Biotech, Cat # SC-9104). Secondary antibody used for specific protein detection was AlexaFluor 680 conjugated […] IgG (Goat) (Rockland Immunochemicals, Cat.#610-132-121) and for tubulin expression was IRDye 800 goat anti-mouse IgG (InVitrogen Cat. # A21076). Protein quantification was preformed using infrared dye labeled secondary antibodies followed by blot scan using the Licor® Odyssey® scanner.
(In general: In western blotting, separated proteins are transferred to a membrane and probed.)

Assay [8] addresses T1, SIRT1. In words: Effect of compounds on the Km of SIRT1 for Acetylated Peptide Substrate (mass spectrometry). Type of assay: biochemical. The note with it: vs DMSO Km.
The mark [9] stands for this setting: peptide p53 (aa 317-320) *FL, read-out: NAD Km.

Read-outs that look alike come from different tables or passages of the source. No end group written: not given here.

Usually Km stands for the substrate concentration at which the rate is half of its maximum.

In the case of `NC(=O)c1ccc[n+]([C@@H]2O[C@H](COP(=O)([O-])OP(=O)(O)OC[C@H]3O[C@@H](n4cnc5c(N)ncnc54)[C@H](O)[C@@H]3O)[C@@H](O)[C@H]2O)c1` [NAD^+], the Km on SIRT1 [1] (peptide p53 (aa 379-382) *FL, read-out: NAD Km) was 558 µM; on SIRT1 [2], 133 µM; on SIRT1 [3], 220 µM; at SIRT1 [4], 90 µM; on Sirt3 (setting [9]), 2030 µM; on Sirt2 [5] (setting [9]), 547 µM. The Km on Sirt2 [6] was 42 µM; at SIRT1 [7] (peptide p53 (aa 368-386) *FL), 192 µM; on SIRT1 [7] (peptide p53 (aa 368-386) no FL), 132 µM.
Take `Oc1ccc(C=Cc2cc(O)cc(O)c2)cc1` [resveratrol]: the “levels of mitochondrial mass biomarkers” value with NCI-H358 cells is recorded as “increases in the levels of mitochondrial mass biomarkers”. Moreover, the “decrease of Km for peptide substrate” value at SIRT1 [8] (1.2 μM resveratrol) is reported as 2%; on SIRT1 [8] (3.7 μM resveratrol), 14%; on SIRT1 [8] (11 μM resveratrol), 14%; at SIRT1 [8] (33 μM resveratrol), 32%; at SIRT1 [8] (100 μM resveratrol), 46%.
With “p53 (aa 317-320) *FL (QPKK; also: fluorescent label; UniProt P04637 317-320, looked up, fragment)”, the figures for the Km with Sirt3 (read-out: Peptide Km) and in the assay with Sirt2 [5] (read-out: Peptide Km) were 32 µM and 186 µM, respectively.
As for “p53 (aa 379-382) *FL (RHKK(Ac); not fully specified (C-terminus); printed as Arg-His-Lys-Lys; also: fluorescent label; UniProt P04637 379-382, looked up, fragment)”, the Km with SIRT1 [1] (read-out: Peptide Km) was 64 µM.
